In assay [1] the test system is Cabbage Looper (Trichoplusia ni) ("CL"), second instar larvae. The assay is described as follows: Bioassay on cabbage looper (CL), 128-well diet tray assay. It counts as in vivo. The following applies: for CL rating: Table ABC, species CL, C = not tested, D = no activity noticed; for pest or weed control at 50 µg/cm2: Trichoplusia ni. The method in brief:
(§1)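 Covered trays were held at 25° C. under a 14:10 light-dark cycle for five to seven days. Percent mortality was then scored in each well, and activity across eight wells was averaged.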

Assay [2] relates to Beet Armyworm (Spodoptera exigua) ("BAW"), second instar larvae. The assay is described as follows: Bioassay on beet armyworm (BAW), 128-well diet tray assay. It counts as in vivo. The following applies: for BAW rating: Table ABC, species BAW, C = not tested, D = no activity noticed; for pest or weed control at 50 µg/cm2: Spodoptera exigua. The method in brief: as §1
[3] abbreviates: read-out: CL (Biological Results, rating).
Setting [4] is: read-out: BAW (Biological Results, rating).

Where two headings read alike, the source gives them in different places.

Regarding `Cc1ccc(COCC(F)(F)F)c(N2C(=O)CS/C2=N\C(=O)Nc2ccc(-c3ncn(-c4ccc(C(F)F)cn4)n3)cc2F)c1` [Compound J346], the “CL (Biological Results, rating)” value in assay [1] (Cabbage Looper (Trichoplusia ni), C = Not Tested) is given as “A (50-100)”. The “BAW (Biological Results, rating)” value in assay [2] (Beet Armyworm (Spodoptera exigua), C = Not Tested) is “A (50-100)”.
On to `Cc1ccc(COCC(F)(F)F)c(N2C(=O)CS/C2=N\C(=O)Nc2ccc(-c3ncn(-c4ccc(C(F)(F)F)cc4)n3)cc2F)c1C` [Compound J680], for which the CL rating entry in assay [1] was “A (50-100)”. Moreover, the BAW rating entry in assay [2] is given as “A (50-100)”.
Regarding `COC(C)c1ccc(C)cc1N1C(=O)CS/C1=N\C(=O)Nc1ccc(-c2cn(-c3ccc(OC(F)(F)F)cc3)cn2)cc1` (centres unmarked) [Compound J463, (Z)-1-(3-(2-(1-Methoxyethyl)-5-methylphenyl)-4-oxothiazolidin-2-ylidene)-3-(4-(1-(4-(trifluoromethoxy)phenyl)-1H-imidazol-4-yl)phenyl)urea], the pest or weed control at 50 µg/cm2 in assay [1] (read-out: CL rating) and in assay [2] (read-out: BAW rating) was 50 to 100% each time.
For `CCCc1ccc(N(C)C)cc1N1C(=O)CS/C1=N\C(=O)Nc1ccc(-n2cnc(-c3ccc(OC(F)(F)F)cc3)n2)cc1` [Compound J409, (Z)-1-(3-(5-(Dimethylamino)-2-propylphenyl)-4-oxothiazolidin-2-ylidene)-3-(4-(3-(4-(trifluoromethoxy)phenyl)-1H-1,2,4-triazol-1-yl)phenyl)urea], the pest or weed control at 50 µg/cm2 in assay [1] (read-out: CL rating) and in assay [2] (read-out: BAW rating) was 50 to 100% each time.
Turning to `Cc1ccc(COCC(F)(F)F)c(N2C(=O)CS/C2=N\C(=O)Nc2ccc(-c3cn(-c4ccc(C(F)(F)F)cc4)cn3)cc2C)c1` [Compound J526, (Z)-1-(3-(5-Methyl-2-((2,2,2-trifluoroethoxy)methyl)phenyl)-4-oxothiazolidin-2-ylidene)-3-(2-methyl-4-(1-(4-(trifluoromethyl)phenyl)-1H-imidazol-4-yl)phenyl)urea], the pest or weed control at 50 µg/cm2 in assay [1] (read-out: CL rating) and in assay [2] (read-out: BAW rating) was 50 to 100% throughout.
`COc1ccc(C(C)C)c(N2C(=O)CS/C2=N\C(=O)Nc2ccc(-c3ncn(-c4ccc(C(F)(F)F)cc4)n3)cc2OC)c1` [Compound J10, (Z)-1-(3-(2-Isopropyl-5-methoxyphenyl)-4-oxothiazolidin-2-ylidene)-3-(2-methoxy-4-(1-(4-(trifluoromethyl)phenyl)-1H-1,2,4-triazol-3-yl)phenyl)urea]: the pest or weed control at 50 µg/cm2 in assay [1] (setting [3]) and in assay [2] (setting [4]) was 50 to 100% each time.
As to `Cc1ccc(COCC(F)(F)F)c(N2C(=O)CS/C2=N\C(=O)Nc2ccc(-c3ncn(-c4ccc(OC(F)(F)F)cc4)n3)cc2O)c1` [Compound J178, (Z)-1-(2-Hydroxy-4-(1-(4-(trifluoromethoxy)phenyl)-1H-1,2,4-triazol-3-yl)phenyl)-3-(3-(5-methyl-2-((2,2,2-trifluoroethoxy)methyl)phenyl)-4-oxothiazolidin-2-ylidene)urea], the pest or weed control at 50 µg/cm2 in assay [1] (setting [3]) and in assay [2] (setting [4]) was 50 to 100% each time.
Consider `CCCOc1ccc(C)cc1N1C(=O)CS/C1=N\C(=O)Nc1ccc(-c2cn(-c3ccc(S(F)(F)(F)(F)F)cc3)cn2)cc1F` [Compound J595, (Z)-1-(2-Fluoro-4-(1-(4-(pentafluoro-λ^6-sulfaneyl)phenyl)-1H-imidazol-4-yl)phenyl)-3-(3-(5-methyl-2-propoxyphenyl)-4-oxothiazolidin-2-ylidene)urea], for which the pest or weed control at 50 µg/cm2 in assay [1] (read-out: CL rating) and in assay [2] (read-out: BAW rating) was 50 to 100% each time.
As for `Cc1ccc(OCC(F)(F)F)c(N2C(=O)CS/C2=N\C(=O)Nc2ccc(-c3ncn(-c4ccc(OC(F)(F)F)cc4)n3)cc2C)c1` [Compound J55, (Z)-1-(3-(5-Methyl-2-(2,2,2-trifluoroethoxy)phenyl)-4-oxothiazolidin-2-ylidene)-3-(2-methyl-4-(1-(4-(trifluoromethoxy)phenyl)-1H-1,2,4-triazol-3-yl)phenyl)urea], the pest or weed control at 50 µg/cm2 in assay [1] (setting [3]) and in assay [2] (setting [4]) was 50 to 100% in each case.
As to `Cc1ccc(OCCC(F)(F)F)c(N2C(=O)C(Cl)S/C2=N\C(=O)Nc2ccc(-c3ncn(-c4ccc(OC(F)(F)F)cc4)n3)cc2F)c1` (centres unmarked) [Compound J36, (Z)-1-(5-Chloro-3-(5-methyl-2-(3,3,3-trifluoropropoxy)phenyl)-4-oxothiazolidin-2-ylidene)-3-(2-fluoro-4-(1-(4-(trifluoromethoxy)phenyl)-1H-1,2,4-triazol-3-yl)phenyl)urea], the pest or weed control at 50 µg/cm2 in assay [1] (setting [3]) and in assay [2] (setting [4]) was 50 to 100% each time.
Turning to `Cc1ccc(Cc2ccc(F)cc2)c(N2C(=O)CS/C2=N\C(=O)Nc2ccc(-c3ncn(-c4ccc(OC(F)(F)F)cc4)n3)cc2F)c1` [Compound J674, (Z)-1-(2-Fluoro-4-(1-(4-(trifluoromethoxy)phenyl)-1H-1,2,4-triazol-3-yl)phenyl)-3-(3-(2-(4-fluorobenzyl)-5-methylphenyl)-4-oxothiazolidin-2-ylidene)urea], the pest or weed control at 50 µg/cm2 in assay [1] (read-out: CL rating) and in assay [2] (read-out: BAW rating) was 50 to 100% throughout.
`O=C(/N=C1\SCC(=O)N1c1ccc(Cl)cc1COCc1ccccc1)Nc1ccc(-c2ncn(-c3ccc(OC(F)(F)F)cc3)n2)cc1F` [Compound J636, (Z)-1-(3-(2-((Benzyloxy)methyl)-4-chlorophenyl)-4-oxothiazolidin-2-ylidene)-3-(2-fluoro-4-(1-(4-(trifluoromethoxy)phenyl)-1H-1,2,4-triazol-3-yl)phenyl)urea]: the pest or weed control at 50 µg/cm2 in assay [1] (read-out: CL rating) is 0 to 50%; in assay [2] (read-out: BAW rating) it was 50 to 100%.
With `CC(=O)c1cc(-c2ncn(-c3ccc(OC(F)(F)F)cc3)n2)ccc1NC(=O)/N=C1\SCC(=O)N1c1cc(C)ccc1COCC(F)(F)F` [Compound J398, (Z)-1-(2-Acetyl-4-(1-(4-(trifluoromethoxy)phenyl)-1H-1,2,4-triazol-3-yl)phenyl)-3-(3-(5-methyl-2-((2,2,2-trifluoroethoxy)methyl)phenyl)-4-oxothiazolidin-2-ylidene)urea], the pest or weed control at 50 µg/cm2 in assay [1] (read-out: CL rating) and in assay [2] (read-out: BAW rating) was 50 to 100% each time.
Consider `Cc1ccc(COCCF)c(N2C(=O)CS/C2=N\C(=O)Nc2ccc(-c3ncn(-c4ccc(S(F)(F)(F)(F)F)cc4)n3)cc2C)c1` [Compound J557], for which, in assay [1], the CL rating entry is listed as “A (50-100)”. The BAW rating result in assay [2] is on record as “A (50-100)”.
In the case of `Cc1ccc(Cc2ccccc2)c(N2C(=O)CS/C2=N\C(=O)Nc2ccc(-c3ncn(-c4ccc(S(F)(F)(F)(F)F)cc4)n3)cc2F)c1` [Compound J563, (Z)-1-(3-(2-Benzyl-5-methylphenyl)-4-oxothiazolidin-2-ylidene)-3-(2-fluoro-4-(1-(4-(pentafluoro-λ^6-sulfaneyl)phenyl)-1H-1,2,4-triazol-3-yl)phenyl)urea], the pest or weed control at 50 µg/cm2 in assay [1] (read-out: CL rating) and in assay [2] (read-out: BAW rating) was 50 to 100% throughout.
In the case of `Cc1ccc(COCC(F)(F)F)c(N2C(=O)CS/C2=N\C(=O)Nc2ccc(-c3ncn(-c4ccc(OC(F)(F)C(F)(F)F)cc4)n3)cc2C)c1` [Compound J681], the CL rating entry in assay [1] was “A (50-100)”. Also, the BAW rating entry in assay [2] is “A (50-100)”.
On to `COC(C)c1ccc(C#N)cc1N1C(=O)CS/C1=N\C(=O)Nc1ccc(-c2cn(-c3ccc(S(F)(F)(F)(F)F)cc3)cn2)cc1F` (centres unmarked) [Compound J606, (Z)-1-(3-(5-Cyano-2-(1-methoxyethyl)phenyl)-4-oxothiazolidin-2-ylidene)-3-(2-fluoro-4-(1-(4-(pentafluoro-λ^6-sulfaneyl)phenyl)-1H-imidazol-4-yl)phenyl)urea], for which the pest or weed control at 50 µg/cm2 in assay [1] (read-out: CL rating) and in assay [2] (read-out: BAW rating) was 50 to 100% in each case.
On to `N#Cc1ccc(OCCC(F)(F)F)c(N2C(=O)CS/C2=N\C(=O)Nc2ccc(-c3ncn(-c4ccc(S(=O)(=O)C(F)(F)F)cc4)n3)cc2F)c1` [Compound J372, (Z)-1-(3-(5-Cyano-2-(3,3,3-trifluoropropoxy)phenyl)-4-oxothiazolidin-2-ylidene)-3-(2-fluoro-4-(1-(4-((trifluoromethyl)sulfonyl)phenyl)-1H-1,2,4-triazol-3-yl)phenyl)urea], for which the pest or weed control at 50 µg/cm2 in assay [1] (read-out: CL rating) and in assay [2] (read-out: BAW rating) was 50 to 100% each time.
Turning to `Cc1ccc(COCC(F)(F)F)c(N2C(=O)CS/C2=N\C(=O)Nc2ccc(-c3ccn(-c4ccc(C(F)(F)F)cn4)n3)cc2F)c1` [Compound J308, (Z)-1-(2-Fluoro-4-(1-(5-(trifluoromethyl)pyridin-2-yl)-1H-pyrazol-3-yl)phenyl)-3-(3-(5-methyl-2-((2,2,2-trifluoroethoxy)methyl)phenyl)-4-oxothiazolidin-2-ylidene)urea], the pest or weed control at 50 µg/cm2 in assay [1] (setting [3]) and in assay [2] (setting [4]) was 50 to 100% each time.
Regarding `Cc1cccc(N2C(=O)CS/C2=N\C(=O)Nc2ccc(-c3ncn(-c4cccc(OC(F)(F)F)c4)n3)cc2F)c1COCC(F)(F)F` [Compound J706], the CL rating entry in assay [1] was “A (50-100)”. The BAW rating result in assay [2] is listed as “A (50-100)”.
`O=C(/N=C1\SCC(=O)N1c1cc(Cl)ccc1C(F)(F)F)Nc1ccc(-c2ncn(-c3ccc(OC(F)(F)F)cc3)n2)cc1Cl` [Compound J42, (Z)-1-(3-(5-Chloro-2-(trifluoromethyl)phenyl)-4-oxothiazolidin-2-ylidene)-3-(2-chloro-4-(1-(4-(trifluoromethoxy)phenyl)-1H-1,2,4-triazol-3-yl)phenyl)urea]: the pest or weed control at 50 µg/cm2 in assay [1] (setting [3]) and in assay [2] (setting [4]) was 50 to 100% in each case.
For `CCCc1ccc(C)cc1N1C(=O)CS/C1=N\C(=O)Nc1ccc(-c2ncn(-c3ccc(S(F)(F)(F)(F)F)cc3)n2)cc1C(F)(F)F` [Compound J628, (Z)-1-(3-(5-Methyl-2-propylphenyl)-4-oxothiazolidin-2-ylidene)-3-(4-(1-(4-(pentafluoro-λ^6-sulfaneyl)phenyl)-1H-1,2,4-triazol-3-yl)-2-(trifluoromethyl)phenyl)urea], the pest or weed control at 50 µg/cm2 in assay [1] (read-out: CL rating) and in assay [2] (read-out: BAW rating) was 50 to 100% in each case.

For the origin of these results see patent publication US20230077362A1 (CORTEVA AGRISCIENCE LLC, priority 2019, published 2023).
